Source: ChEMBL document CHEMBL4613246, “Antimycobacterial Rufomycin Analogues from Streptomyces atratus Strain MJM3502” (J Nat Prod, 2020)
Converted amounts (≈) assume the structure as drawn. Starred links: 1 amine or outer side, 2 acyl side, 3 side chain; linkers in the order of their positions; H or OH if unused. Non-standard residues stand in square brackets, D forms with d. Residues, ends and D or L forms follow the SMILES beside them. Trp(1-CMe2(2S-oxiranyl)) = CC(C)([C@H]1CO1)n1cc(C[C@H](N)C(=O)O)c2ccccc21; Trp(1-(1,1-Me2-allyl)) = C=CC(C)(C)n1cc(C[C@H](N)C(=O)O)c2ccccc21; X3 = CC(C)([C@H](O)CCl)n1cc(C[C@H](N[*:1])C(=O)[*:2])c2ccccc21; Tyr(3-NO2) = N[C@@H](Cc1ccc(O)c([N+](=O)[O-])c1)C(=O)O; NMeLeu(5-OH,4R) = CN[C@@H](C[C@@H](C)CO)C(=O)O; X1 = COC(OC)C(C)C[C@@H](C(=O)[*:2])N(C)[*:1]; X2 = C[C@H](CO)C[C@@H](C(=O)[*:2])N(C)[*:1]; Gly(E-crotyl) = C/C=C/C[C@H](N)C(=O)O; NMeL = CN[C@@H](CC(C)C)C(=O)O

Assays:
[1] = target: T1, ATP-dependent Clp protease ATP-binding subunit ClpC1 (Mycobacterium tuberculosis, UniProt P9WPC9); experiment: Binding affinity to recombinant full length Mycobacterium tuberculosis H37Rv ClpC1 (1 to 842 residues) expressed in Escherichia coli BL21 cells by surface plasmon resonance analysis
[2] = tested on: Mycobacterium tuberculosis; experiment: Antimycobacterial activity against nonreplicating Mycobacterium tuberculosis H37Rv under hypoxic condition by fluorescence based assay; type: functional
[3] = target: T1, ATP-dependent Clp protease ATP-binding subunit ClpC1; experiment: Binding affinity to recombinant Mycobacterium tuberculosis H37Rv N-terminal His6-tagged ClpC1 (1 to 145 residues) expressed in Escherichia coli BL21 cells by surface plasmon resonance analysis
[4] = tested on: Mycobacterium tuberculosis; experiment: Antimycobacterial activity against Mycobacterium tuberculosis H37Rv assessed as reduction in microbial growth after 7 days by alamar blue assay; type: functional; conditions: 168 h
[5] = tested on: Mycobacteroides abscessus; experiment: Antimycobacterial activity against Mycobacterium abscessus ATCC 19977 assessed as reduction in microbial growth after 7 days by alamar blue assay; type: functional; conditions: ATCC 19977, 168 h
[6] = tested on: Vero; experiment: cells; conditions: Chlorocebus sabaeus
Description: Cytotoxicity against African green monkey Vero cells

T1 sequence (P9WPC9 whole entry, the tested form may be a part): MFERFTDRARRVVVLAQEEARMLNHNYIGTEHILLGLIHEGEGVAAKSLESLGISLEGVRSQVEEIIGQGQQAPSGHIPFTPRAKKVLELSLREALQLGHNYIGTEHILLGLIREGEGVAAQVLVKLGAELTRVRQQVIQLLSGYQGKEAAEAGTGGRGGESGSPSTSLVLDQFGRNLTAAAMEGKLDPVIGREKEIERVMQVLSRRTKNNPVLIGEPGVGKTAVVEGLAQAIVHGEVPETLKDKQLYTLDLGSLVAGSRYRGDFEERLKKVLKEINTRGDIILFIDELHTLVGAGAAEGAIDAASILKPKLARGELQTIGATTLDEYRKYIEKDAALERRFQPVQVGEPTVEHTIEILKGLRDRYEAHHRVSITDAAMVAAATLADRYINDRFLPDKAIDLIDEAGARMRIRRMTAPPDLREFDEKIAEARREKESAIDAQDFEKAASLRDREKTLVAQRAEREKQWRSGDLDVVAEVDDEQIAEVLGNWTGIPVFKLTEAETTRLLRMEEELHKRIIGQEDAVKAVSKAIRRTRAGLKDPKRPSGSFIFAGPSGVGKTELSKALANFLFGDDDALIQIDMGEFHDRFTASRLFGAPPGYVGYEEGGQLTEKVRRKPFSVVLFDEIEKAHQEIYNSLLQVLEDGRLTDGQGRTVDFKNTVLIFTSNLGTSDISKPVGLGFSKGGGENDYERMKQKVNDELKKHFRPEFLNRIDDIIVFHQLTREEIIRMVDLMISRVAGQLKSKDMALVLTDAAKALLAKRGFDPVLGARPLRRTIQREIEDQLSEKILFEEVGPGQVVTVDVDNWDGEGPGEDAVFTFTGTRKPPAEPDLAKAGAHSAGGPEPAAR

**Q.** C=CC(C)(C)n1cc(C[C@@H]2NC(=O)[C@H](C/C=C/C)NC(=O)[C@H](CC(C)C)NC(=O)[C@H](C[C@H](C)CO)N(C)C(=O)[C@H](C)NC(=O)[C@H](Cc3ccc(O)c([N+](=O)[O-])c3)NC(=O)[C@H](CC(C)C)N(C)C2=O)c2ccccc21 (cyclo(A[X2]L[Gly(E-crotyl)][Trp(1-(1,1-Me2-allyl))][NMeL][Tyr(3-NO2)])) was tested. Which Kd [1] did it give?
**A.** The Kd was 1.1 µM.

**Q.** And the MIC [2]?
**A.** Its MIC is 4 to 10 µM (≈ 4.11 to 10.3 µg/mL).

**Q.** What about the Kd [3] of the same compound?
**A.** Its Kd is 1.1 µM.

**Q.** What about the MIC [4] of the same compound?
**A.** The MIC was 0.84 µM.

**Q.** Which Kd [1] does the source give for C/C=C/C[C@@H]1NC(=O)[C@H](CC(C)C)NC(=O)[C@H](CC(C)C)N(C)C(=O)[C@H](C)NC(=O)[C@H](Cc2ccc(O)c([N+](=O)[O-])c2)NC(=O)[C@H](CC(C)C)N(C)C(=O)[C@H](Cc2cn(C(C)(C)[C@H]3CO3)c3ccccc23)NC1=O (cyclo(A[NMeL]L[Gly(E-crotyl)][Trp(1-CMe2(2S-oxiranyl))][NMeL][Tyr(3-NO2)])) here?
**A.** The Kd was 0.54 µM.

**Q.** What about the MIC [2] of the same compound?
**A.** Its MIC is 4 to 10 µM (≈ 4.11 to 10.3 µg/mL).

**Q.** What about the Kd [3] of the same compound?
**A.** The Kd was 1.7 µM.

**Q.** And the MIC [4]?
**A.** Its MIC is 0.2 µM.

**Q.** With C=CC(C)(C)n1cc(C[C@@H]2NC(=O)[C@H](C/C=C/C)NC(=O)[C@H](CC(C)C)NC(=O)[C@H](CC(C)C)N(C)C(=O)[C@H](C)NC(=O)[C@H](Cc3ccc(O)c([N+](=O)[O-])c3)NC(=O)[C@H](CC(C)C)N(C)C2=O)c2ccccc21 (cyclo(A[NMeL]L[Gly(E-crotyl)][Trp(1-(1,1-Me2-allyl))][NMeL][Tyr(3-NO2)])) as the compound, how does the Kd [1] read?
**A.** The Kd was 3.2 µM.

**Q.** What about the MIC [2] of the same compound?
**A.** Its MIC is 4 to 10 µM (≈ 4.05 to 10.1 µg/mL).

**Q.** What about the Kd [3] of the same compound?
**A.** Its Kd is 1.2 µM.

**Q.** And the MIC [4]?
**A.** Its MIC is 1.7 µM.

**Q.** With C/C=C/C[C@@H]1NC(=O)[C@H](CC(C)C)NC(=O)[C@H](C[C@@H](C)CO)N(C)C(=O)[C@H](C)NC(=O)[C@H](Cc2ccc(O)c([N+](=O)[O-])c2)NC(=O)[C@H](CC(C)C)N(C)C(=O)[C@H](Cc2cn(C(C)(C)[C@H]3CO3)c3ccccc23)NC1=O (cyclo(A[NMeLeu(5-OH,4R)]L[Gly(E-crotyl)][Trp(1-CMe2(2S-oxiranyl))][NMeL][Tyr(3-NO2)])) as the compound, how does the Kd [1] read?
**A.** The Kd was 1.3 µM.

**Q.** And the MIC [2]?
**A.** Its MIC is 4 to 10 µM (≈ 4.18 to 10.4 µg/mL).

**Q.** What about the Kd [3] of the same compound?
**A.** The Kd was 1.6 µM.

**Q.** What about the MIC [4] of the same compound?
**A.** Its MIC is 0.44 µM.

**Q.** What does the source list for CO[C@H]1/C=C/O[C@@]2(C)Oc3c(C)c(O)c4c(O)c(c(/C=N/N5CCN(C)CC5)c(O)c4c3C2=O)NC(=O)/C(C)=C\C=C\[C@H](C)[C@H](O)[C@@H](C)[C@@H](O)[C@@H](C)[C@H](OC(C)=O)[C@@H]1C [RIFAMPIN]?
**A.** MIC [5]: > 4 µM; IC50 [6]: > 122 µM; MIC [4]: 0.03 µM

**Q.** Which MIC [2] does the source give for C=CC(C)(C)n1cc(C[C@@H]2NC(=O)[C@H](CC(C)C)N(C)C2=O)c2ccccc21 here?
**A.** Its MIC is 4 to 10 µM (≈ 1.53 to 3.82 µg/mL).

**Q.** What about the MIC [4] of the same compound?
**A.** The MIC was > 10 µM.

**Q.** How did the Kd [1] turn out when C/C=C/C[C@@H]1NC(=O)[C@H](CC(C)C)N2C(=O)[C@H](C[C@](C)(O)[C@H]2O)N(C)C(=O)[C@H](C)NC(=O)[C@H](Cc2ccc(O)c([N+](=O)[O-])c2)NC(=O)[C@H](CC(C)C)N(C)C(=O)[C@H](Cc2cn(C(C)(C)[C@H]3CO3)c3ccccc23)NC1=O was run?
**A.** Its Kd is 0.05 µM.

**Q.** And the MIC [2]?
**A.** The MIC was 4 to 10 µM (≈ 4.23 to 10.6 µg/mL).

**Q.** What about the Kd [3] of the same compound?
**A.** The Kd was 0.06 µM.

**Q.** What about the MIC [4] of the same compound?
**A.** Its MIC is 0.03 µM.

**Q.** C=CC(C)(C)n1cc(C[C@@H]2NC(=O)[C@H](C/C=C/C)NC(=O)[C@H](CC(C)C)NC(=O)[C@H](CC(C)C)N(C)C(=O)[C@H](C)NC(=O)[C@H](Cc3ccc(O)cc3)NC(=O)[C@H](CC(C)C)N(C)C2=O)c2ccccc21 (HELM PEPTIDE1{A.[meL].L.[C/C=C/C[C@H](N[*:1])C(=O)[*:2]].[C=CC(C)(C)n1cc(C[C@H](N[*:1])C(=O)[*:2])c2ccccc21].[meL].Y}$PEPTIDE1,PEPTIDE1,1:R1-7:R2$$$V2.0) was tested. Which Kd [1] did it give?
**A.** Its Kd is 5.7 µM.

**Q.** What about the MIC [2] of the same compound?
**A.** Its MIC is 4 to 10 µM (≈ 3.87 to 9.67 µg/mL).

**Q.** And the Kd [3]?
**A.** The Kd was 1.2 µM.

**Q.** What about the MIC [4] of the same compound?
**A.** The MIC was > 10 µM.

**Q.** How did the Kd [1] turn out when C/C=C/C[C@@H]1NC(=O)[C@H](CC(C)C)N2C(=O)[C@H](C[C@@H](C)[C@H]2O)N(C)C(=O)[C@H](C)NC(=O)[C@H](Cc2ccc(O)c([N+](=O)[O-])c2)NC(=O)[C@H](CC(C)C)N(C)C(=O)[C@H](Cc2cn(C(C)(C)[C@H](O)CO)c3ccccc23)NC1=O was run?
**A.** The Kd was 0.28 µM.

**Q.** And the MIC [2]?
**A.** Its MIC is 4 to 10 µM (≈ 4.24 to 10.6 µg/mL).

**Q.** And the Kd [3]?
**A.** The Kd was 0.3 µM.

**Q.** And the MIC [4]?
**A.** Its MIC is 0.1 µM.

**Q.** For C/C=C/C[C@@H]1NC(=O)[C@H](CC(C)C)NC(=O)[C@H](CC(C)C)N(C)C(=O)[C@H](C)NC(=O)[C@H](Cc2ccc(O)c([N+](=O)[O-])c2)NC(=O)[C@H](CC(C)C)N(C)C(=O)[C@H](Cc2cn(C(C)(C)[C@H](O)CCl)c3ccccc23)NC1=O (cyclo(A[NMeL]L[Gly(E-crotyl)][X3][NMeL][Tyr(3-NO2)])), which Kd [1] is on record?
**A.** Its Kd is 1.5 µM.

**Q.** And the MIC [2]?
**A.** The MIC was 4 to 10 µM (≈ 4.26 to 10.6 µg/mL).

**Q.** What about the Kd [3] of the same compound?
**A.** Its Kd is 1.5 µM.

**Q.** With C/C=C/C[C@@H]1NC(=O)[C@H](CC(C)C)NC(=O)[C@H](C[C@H](C)CO)N(C)C(=O)[C@H](C)NC(=O)[C@H](Cc2ccc(O)c([N+](=O)[O-])c2)NC(=O)[C@H](CC(C)C)N(C)C(=O)[C@H](Cc2cn(C(C)(C)[C@H]3CO3)c3ccccc23)NC1=O (cyclo(A[X2]L[Gly(E-crotyl)][Trp(1-CMe2(2S-oxiranyl))][NMeL][Tyr(3-NO2)])) as the compound, how does the Kd [1] read?
**A.** The Kd was 0.5 µM.

**Q.** What about the MIC [2] of the same compound?
**A.** Its MIC is 4 to 10 µM (≈ 4.18 to 10.4 µg/mL).

**Q.** What about the Kd [3] of the same compound?
**A.** Its Kd is 0.62 µM.

**Q.** What about the MIC [4] of the same compound?
**A.** The MIC was 0.25 µM.

**Q.** NNC(=O)c1ccncc1 [ISONIAZID] was tested. Which MIC [5] did it give?
**A.** Its MIC is > 8 µM.

**Q.** And the IC50 [6]?
**A.** The IC50 was > 50 µM.

**Q.** What about the MIC [4] of the same compound?
**A.** The MIC was 0.46 µM.

**Q.** Which Kd [1] does the source give for C/C=C/C[C@@H]1NC(=O)[C@H](CC(C)C)NC(=O)[C@H](CC(C)C(OC)OC)N(C)C(=O)[C@H](C)NC(=O)[C@H](Cc2ccc(O)c([N+](=O)[O-])c2)NC(=O)[C@H](CC(C)C)N(C)C(=O)[C@H](Cc2cn(C(C)(C)[C@H]3CO3)c3ccccc23)NC1=O (stereo partly drawn) (cyclo(A[X1]L[Gly(E-crotyl)][Trp(1-CMe2(2S-oxiranyl))][NMeL][Tyr(3-NO2)])) here?
**A.** Its Kd is 0.45 µM.

**Q.** And the MIC [2]?
**A.** Its MIC is 4 to 10 µM (≈ 4.35 to 10.9 µg/mL).

**Q.** And the Kd [3]?
**A.** The Kd was 0.31 µM.

**Q.** What about the MIC [4] of the same compound?
**A.** The MIC was 0.11 µM.

**Q.** Which Kd [1] does the source give for C/C=C/C[C@@H]1NC(=O)[C@H](CC(C)C)N2C(=O)[C@H](CC(C)[C@H]2O)N(C)C(=O)[C@H](C)NC(=O)[C@H](Cc2ccc(O)c([N+](=O)[O-])c2)NC(=O)[C@H](CC(C)C)N(C)C(=O)[C@H](Cc2cn(C(C)(C)[C@H]3CO3)c3ccccc23)NC1=O (stereo not given in full) here?
**A.** Its Kd is 0.06 µM.

**Q.** And the MIC [2]?
**A.** Its MIC is 4 to 10 µM (≈ 4.17 to 10.4 µg/mL).

**Q.** And the MIC [5]?
**A.** The MIC was 0.29 µM.

**Q.** What about the Kd [3] of the same compound?
**A.** The Kd was 0.06 µM.

**Q.** What about the MIC [4] of the same compound?
**A.** The MIC was 0.02 µM.

**Q.** How did the Kd [1] turn out when C/C=C/C[C@@H]1NC(=O)[C@H](CC(C)C)NC(=O)[C@H](CC(C)C)N(C)C(=O)[C@H](C)NC(=O)[C@H](Cc2ccc(O)c([N+](=O)[O-])c2)NC(=O)[C@H](CC(C)C)NC(=O)[C@H](Cc2cn(C(C)(C)[C@H]3CO3)c3ccccc23)NC1=O (cyclo(A[NMeL]L[Gly(E-crotyl)][Trp(1-CMe2(2S-oxiranyl))]L[Tyr(3-NO2)])) was run?
**A.** Its Kd is 1.5 µM.

**Q.** What about the MIC [2] of the same compound?
**A.** The MIC was 4 to 10 µM (≈ 4.06 to 10.1 µg/mL).

**Q.** What about the MIC [4] of the same compound?
**A.** Its MIC is 0.57 µM.
